Results: PubChem BioAssay (NCI)
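Compound exposure: 48 hours, 5 concentrations, 96-well plates. Abbreviation: GI50, concentration required for 50% inhibition of growth. TGI marks complete inhibition of growth.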

Tests used:
Assay in all cases: NCI tumour cell line growth inhibition, 48 h
HT29 colon = test system: HT29 colon
COLO 205 colon = test system: COLO 205 colon
DU-145 prostate = test system: DU-145 prostate
SN12C renal = test system: SN12C renal
OVCAR-5 ovarian = test system: OVCAR-5 ovarian
EKVX NSCLC = test system: EKVX NSCLC
OVCAR-8 ovarian = test system: OVCAR-8 ovarian
SNB-75 CNS = test system: SNB-75 CNS
MCF7 breast = test system: MCF7 breast
MDA-MB-231 breast = test system: MDA-MB-231 breast
HOP-62 NSCLC = test system: HOP-62 NSCLC
OVCAR-3 ovarian = test system: OVCAR-3 ovarian
NCI-H522 lung = test system: NCI-H522 lung
A498 renal = test system: A498 renal
SF-268 CNS = test system: SF-268 CNS
HCT-116 colon = test system: HCT-116 colon
SK-OV-3 ovarian = test system: SK-OV-3 ovarian
NCI/ADR-RES ovarian = test system: NCI/ADR-RES ovarian
CCRF-CEM leukemia = test system: CCRF-CEM leukemia
U251 CNS = test system: U251 CNS
NCI-H23 lung = test system: NCI-H23 lung
SF-539 CNS = test system: SF-539 CNS
HOP-92 NSCLC = test system: HOP-92 NSCLC
HCT-15 colon = test system: HCT-15 colon
IGROV1 ovarian = test system: IGROV1 ovarian
KM12 colon = test system: KM12 colon
RXF 393 renal = test system: RXF 393 renal
HL-60(TB) leukemia = test system: HL-60(TB) leukemia
RPMI-8226 leukemia = test system: RPMI-8226 leukemia
SF-295 CNS = test system: SF-295 CNS
OVCAR-4 ovarian = test system: OVCAR-4 ovarian
SW-620 colon = test system: SW-620 colon
M14 melanoma = test system: M14 melanoma
BT-549 breast = test system: BT-549 breast
NCI-H460 lung = test system: NCI-H460 lung
PC-3 prostate = test system: PC-3 prostate
SR leukemia = test system: SR leukemia
UO-31 renal = test system: UO-31 renal
SNB-19 CNS = test system: SNB-19 CNS
SK-MEL-2 melanoma = test system: SK-MEL-2 melanoma
HCC-2998 colon = test system: HCC-2998 colon
A549 NSCLC = test system: A549 NSCLC
ACHN renal = test system: ACHN renal
SK-MEL-28 melanoma = test system: SK-MEL-28 melanoma
MOLT-4 leukemia = test system: MOLT-4 leukemia
LOX IMVI melanoma = test system: LOX IMVI melanoma
SK-MEL-5 melanoma = test system: SK-MEL-5 melanoma
TK-10 renal = test system: TK-10 renal
T-47D breast = test system: T-47D breast
CAKI-1 renal = test system: CAKI-1 renal
NCI-H226 lung = test system: NCI-H226 lung
786-0 renal = test system: 786-0 renal
K-562 leukemia = test system: K-562 leukemia
UACC-62 melanoma = test system: UACC-62 melanoma
HS 578T breast = test system: HS 578T breast
UACC-257 melanoma = test system: UACC-257 melanoma
MALME-3M melanoma = test system: MALME-3M melanoma
MDA-MB-435 = test system: MDA-MB-435

## O=C(Nc1ncc(Cc2ccccc2)s1)c1ccc2c(c1)OCCCO2
HT29 colon
  GI50: 361 nM
  TGI: > 100000 nM
COLO 205 colon
  GI50: 579 nM
  TGI: > 100000 nM
DU-145 prostate
  GI50: 2300 nM
  TGI: > 100000 nM
SN12C renal
  GI50: 2120 nM
  TGI: > 100000 nM
OVCAR-5 ovarian
  GI50: 11500 nM
  TGI: > 100000 nM
EKVX NSCLC
  GI50: 1050 nM
  TGI: > 100000 nM
OVCAR-8 ovarian
  GI50: 2010 nM
  TGI: > 100000 nM
SNB-75 CNS
  GI50: 613 nM
  TGI: > 29300 nM
MCF7 breast
  GI50: 374 nM
  TGI: > 100000 nM
MDA-MB-231 breast
  GI50: 2770 nM
  TGI: > 100000 nM
HOP-62 NSCLC
  GI50: 730 nM
  TGI: > 100000 nM
OVCAR-3 ovarian
  GI50: 614 nM
  TGI: > 100000 nM
NCI-H522 lung
  GI50: 1030 nM
  TGI: > 100000 nM
A498 renal
  GI50: 282 nM
  TGI: 3030 nM
SF-268 CNS
  GI50: 1920 nM
  TGI: > 100000 nM
HCT-116 colon
  GI50: 468 nM
  TGI: > 100000 nM
SK-OV-3 ovarian
  GI50: 3170 nM
  TGI: > 100000 nM
NCI/ADR-RES ovarian
  GI50: 547 nM
  TGI: > 100000 nM
CCRF-CEM leukemia
  GI50: 524 nM
  TGI: > 100000 nM
U251 CNS
  GI50: 631 nM
  TGI: > 100000 nM
NCI-H23 lung
  GI50: 2430 nM
  TGI: > 100000 nM
SF-539 CNS
  GI50: 490 nM
  TGI: 4270 nM
HOP-92 NSCLC
  GI50: > 24000 nM
  TGI: > 100000 nM
HCT-15 colon
  GI50: 376 nM
  TGI: > 100000 nM
IGROV1 ovarian
  GI50: 880 nM
  TGI: > 100000 nM
KM12 colon
  GI50: 372 nM
  TGI: > 100000 nM
RXF 393 renal
  GI50: 1780 nM
  TGI: > 100000 nM
HL-60(TB) leukemia
  GI50: 330 nM
  TGI: > 51600 nM
RPMI-8226 leukemia
  GI50: 428 nM
SF-295 CNS
  GI50: 396 nM
  TGI: > 100000 nM
OVCAR-4 ovarian
  GI50: 5220 nM
  TGI: > 100000 nM
SW-620 colon
  GI50: 444 nM
  TGI: > 100000 nM
M14 melanoma
  GI50: 374 nM
  TGI: > 100000 nM
BT-549 breast
  GI50: 1930 nM
  TGI: > 100000 nM
NCI-H460 lung
  GI50: 407 nM
  TGI: > 100000 nM
PC-3 prostate
  GI50: 927 nM
  TGI: > 100000 nM
SR leukemia
  GI50: 299 nM
  TGI: > 100000 nM
UO-31 renal
  GI50: 1420 nM
  TGI: > 100000 nM
SNB-19 CNS
  GI50: 1000 nM
  TGI: > 100000 nM
SK-MEL-2 melanoma
  GI50: 1360 nM
  TGI: > 100000 nM
HCC-2998 colon
  GI50: 885 nM
  TGI: > 100000 nM
A549 NSCLC
  GI50: 725 nM
  TGI: > 100000 nM
ACHN renal
  GI50: 644 nM
  TGI: > 100000 nM
SK-MEL-28 melanoma
  GI50: 838 nM
  TGI: > 100000 nM
MOLT-4 leukemia
  GI50: 478 nM
  TGI: > 100000 nM
LOX IMVI melanoma
  GI50: 323 nM
  TGI: > 100000 nM
SK-MEL-5 melanoma
  GI50: 424 nM
  TGI: 1960 nM
TK-10 renal
  GI50: 6170 nM
  TGI: > 100000 nM
T-47D breast
  GI50: 541 nM
  TGI: > 100000 nM
CAKI-1 renal
  GI50: 526 nM
  TGI: > 100000 nM
NCI-H226 lung
  GI50: 1440 nM
  TGI: > 100000 nM
786-0 renal
  GI50: 2440 nM
  TGI: > 100000 nM
K-562 leukemia
  GI50: 254 nM
  TGI: > 100000 nM
UACC-62 melanoma
  GI50: 302 nM
  TGI: > 100000 nM
HS 578T breast
  GI50: 1140 nM
  TGI: > 100000 nM
UACC-257 melanoma
  GI50: 1610 nM
  TGI: > 100000 nM
MALME-3M melanoma
  GI50: 882 nM
  TGI: > 100000 nM

## CCOC(=O)c1cc2c(n1Cc1cc(OC)cc(OC)c1)-c1oncc1CCC2
HT29 colon
  GI50: 49.9 nM
  TGI: 20100 nM
COLO 205 colon
  GI50: 64.7 nM
  TGI: 6150 nM
DU-145 prostate
  GI50: 116 nM
SN12C renal
  GI50: 252 nM
  TGI: > 100000 nM
OVCAR-5 ovarian
  GI50: 294 nM
  TGI: > 100000 nM
OVCAR-8 ovarian
  GI50: 169 nM
  TGI: > 100000 nM
SNB-75 CNS
  GI50: 27.6 nM
  TGI: > 100000 nM
MDA-MB-435
  GI50: 31.3 nM
  TGI: 112 nM
MCF7 breast
  GI50: 40.1 nM
  TGI: > 100000 nM
MDA-MB-231 breast
  GI50: 439 nM
  TGI: > 24500 nM
HOP-62 NSCLC
  GI50: 242 nM
  TGI: > 100000 nM
OVCAR-3 ovarian
  GI50: 27.4 nM
  TGI: 88.9 nM
NCI-H522 lung
  GI50: 19.4 nM
  TGI: 68.2 nM
A498 renal
  GI50: 46.9 nM
  TGI: 295 nM
SF-268 CNS
  GI50: 243 nM
  TGI: > 100000 nM
HCT-116 colon
  GI50: 58.8 nM
  TGI: > 100000 nM
SK-OV-3 ovarian
  GI50: 108 nM
  TGI: > 100000 nM
NCI/ADR-RES ovarian
  GI50: 60.3 nM
CCRF-CEM leukemia
  GI50: 54.2 nM
  TGI: > 100000 nM
U251 CNS
  GI50: 255 nM
  TGI: > 100000 nM
NCI-H23 lung
  GI50: 544 nM
  TGI: > 100000 nM
SF-539 CNS
  GI50: 49.5 nM
  TGI: 203 nM
HOP-92 NSCLC
  GI50: 85.8 nM
  TGI: 7370 nM
HCT-15 colon
  GI50: 67.8 nM
  TGI: > 100000 nM
IGROV1 ovarian
  GI50: 73.2 nM
  TGI: > 100000 nM
KM12 colon
  GI50: 47.2 nM
  TGI: > 20500 nM
RXF 393 renal
  GI50: 98.7 nM
  TGI: > 100000 nM
HL-60(TB) leukemia
  GI50: 31.1 nM
  TGI: 97.2 nM
RPMI-8226 leukemia
  GI50: 116 nM
  TGI: > 33700 nM
SF-295 CNS
  GI50: 29.1 nM
  TGI: 140 nM
OVCAR-4 ovarian
  GI50: 1770 nM
  TGI: > 100000 nM
SW-620 colon
  GI50: 78.4 nM
  TGI: > 100000 nM
M14 melanoma
  GI50: 57 nM
  TGI: > 100000 nM
BT-549 breast
  GI50: 890 nM
  TGI: > 100000 nM
NCI-H460 lung
  GI50: 71 nM
  TGI: > 100000 nM
PC-3 prostate
  GI50: 64.4 nM
  TGI: > 100000 nM
SR leukemia
  GI50: 38.2 nM
  TGI: > 100000 nM
UO-31 renal
  GI50: 392 nM
  TGI: > 100000 nM
SNB-19 CNS
  GI50: 844 nM
  TGI: > 100000 nM
SK-MEL-2 melanoma
  GI50: 38 nM
  TGI: > 100000 nM
HCC-2998 colon
  GI50: 322 nM
  TGI: > 100000 nM
A549 NSCLC
  GI50: 112 nM
  TGI: > 100000 nM
ACHN renal
  GI50: 67.4 nM
  TGI: > 100000 nM
SK-MEL-28 melanoma
  GI50: 143 nM
  TGI: > 100000 nM
MOLT-4 leukemia
  GI50: 387 nM
  TGI: > 100000 nM
LOX IMVI melanoma
  GI50: 119 nM
  TGI: > 100000 nM
SK-MEL-5 melanoma
  GI50: 52.8 nM
  TGI: 6220 nM
TK-10 renal
  TGI: > 100000 nM
CAKI-1 renal
  GI50: 101 nM
  TGI: > 100000 nM
NCI-H226 lung
  GI50: 23000 nM
  TGI: > 100000 nM
786-0 renal
  GI50: 104 nM
  TGI: > 100000 nM
K-562 leukemia
  GI50: 57.5 nM
  TGI: > 100000 nM
UACC-62 melanoma
  GI50: 71.4 nM
  TGI: > 100000 nM
HS 578T breast
  GI50: 49.2 nM
  TGI: > 100000 nM
